Assay results: ChEMBL document CHEMBL1142534, “Design, synthesis, biological evaluation and pharmacokinetics of bis(hydroxyphenyl) substituted azoles, thiophenes, benzenes, and aza-benzenes as potent and selective nonsteroidal inhibitors of 17beta-hydroxysteroid dehydrogenase type 1 (17beta-HSD1)” (J Med Chem, 2008)
One block for each molecule: values may come before it. Activity calls are given as the source filed them. No cut-off for these calls is given here.

Tests used:
[1] = target: T1, 17-beta-hydroxysteroid dehydrogenase type 1 (Homo sapiens) (UniProt P14061); assay: (§1) Inhibition of human placental cytosolic 17beta-HSD1
T1 sequence (whole entry): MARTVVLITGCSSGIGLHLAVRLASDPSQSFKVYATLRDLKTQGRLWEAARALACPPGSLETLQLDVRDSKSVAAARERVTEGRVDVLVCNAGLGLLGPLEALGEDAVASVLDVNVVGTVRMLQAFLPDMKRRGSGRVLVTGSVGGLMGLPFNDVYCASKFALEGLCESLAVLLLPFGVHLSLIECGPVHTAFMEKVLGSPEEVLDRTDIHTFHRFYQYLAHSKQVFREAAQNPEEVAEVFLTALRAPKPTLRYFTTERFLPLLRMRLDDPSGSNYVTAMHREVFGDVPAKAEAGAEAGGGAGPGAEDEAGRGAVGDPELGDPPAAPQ

[2] = target: T2, 17-beta-hydroxysteroid dehydrogenase type 1 (Homo sapiens, UniProt P14061); assay: as §1
T2 sequence (P14061 whole entry): T1 sequence (whole entry)

in vitro [3] = details: Sprague-Dawley, rat, liver microsomes
T47D = assay: Estrogenic activity in human ER expressing T47D cells assessed as stimulation of cell proliferation at 100 nM by MTT assay; type: functional, cell-based
Cytochrome P450 2C19 = Cytochrome P450 2C19 (Homo sapiens, UniProt P33261); assay: Inhibition of human hepatic CYP2C19; type: ADME
Cytochrome P450 3A4 = Cytochrome P450 3A4 (Homo sapiens, UniProt P08684); assay: Inhibition of human hepatic CYP3A4
in vitro [4] = details: Sprague-Dawley, rat, liver microsomes; remark: listed apart in the source
Cytochrome P450 2B6 = target: T3, Cytochrome P450 2B6 (Homo sapiens, UniProt P20813); assay: Inhibition of human hepatic CYP2B6; type: ADME
T3 sequence (P20813 whole entry): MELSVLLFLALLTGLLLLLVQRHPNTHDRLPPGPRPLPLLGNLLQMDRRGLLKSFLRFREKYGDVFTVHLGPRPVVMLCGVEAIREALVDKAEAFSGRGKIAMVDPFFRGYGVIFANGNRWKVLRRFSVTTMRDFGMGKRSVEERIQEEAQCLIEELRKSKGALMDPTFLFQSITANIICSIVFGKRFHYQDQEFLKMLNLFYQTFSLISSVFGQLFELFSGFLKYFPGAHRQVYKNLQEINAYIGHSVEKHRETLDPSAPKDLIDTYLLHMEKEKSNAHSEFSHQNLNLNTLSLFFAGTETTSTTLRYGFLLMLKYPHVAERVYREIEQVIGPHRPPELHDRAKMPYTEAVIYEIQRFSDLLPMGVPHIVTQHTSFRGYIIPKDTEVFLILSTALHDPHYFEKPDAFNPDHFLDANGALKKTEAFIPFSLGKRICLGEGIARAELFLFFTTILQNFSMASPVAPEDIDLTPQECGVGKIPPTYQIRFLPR

[5] = target: T4, Estrogen receptor (Homo sapiens) (UniProt P03372); assay: Displacement of [2,4,6,7-3H]17beta-estradiol from human recombinant ERalpha receptor relative to 17-beta-estradiol
T4 sequence (whole entry): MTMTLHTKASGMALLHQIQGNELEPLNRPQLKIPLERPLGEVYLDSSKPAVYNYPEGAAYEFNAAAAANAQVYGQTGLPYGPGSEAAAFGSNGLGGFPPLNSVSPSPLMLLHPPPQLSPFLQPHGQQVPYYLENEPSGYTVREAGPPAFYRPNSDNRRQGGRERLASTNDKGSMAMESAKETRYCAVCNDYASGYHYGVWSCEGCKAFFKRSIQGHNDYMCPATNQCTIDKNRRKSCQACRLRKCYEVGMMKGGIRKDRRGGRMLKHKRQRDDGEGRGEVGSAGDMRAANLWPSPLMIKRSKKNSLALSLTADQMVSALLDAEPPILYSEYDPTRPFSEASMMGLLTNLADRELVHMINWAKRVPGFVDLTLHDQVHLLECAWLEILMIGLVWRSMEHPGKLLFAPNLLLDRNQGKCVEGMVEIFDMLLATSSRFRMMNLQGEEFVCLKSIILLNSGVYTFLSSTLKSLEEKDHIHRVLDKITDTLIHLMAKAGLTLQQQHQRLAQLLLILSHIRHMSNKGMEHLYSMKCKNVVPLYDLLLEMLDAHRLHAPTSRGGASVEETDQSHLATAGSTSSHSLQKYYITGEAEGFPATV

Cytochrome P450 2D6 = Cytochrome P450 2D6 (Homo sapiens, UniProt P10635); assay: Inhibition of human hepatic CYP2D6; type: ADME
Cytochrome P450 1A2 = target: T5, Cytochrome P450 1A2 (Homo sapiens, UniProt P05177); assay: Inhibition of human hepatic CYP1A2; type: ADME
T5 sequence (P05177 whole entry): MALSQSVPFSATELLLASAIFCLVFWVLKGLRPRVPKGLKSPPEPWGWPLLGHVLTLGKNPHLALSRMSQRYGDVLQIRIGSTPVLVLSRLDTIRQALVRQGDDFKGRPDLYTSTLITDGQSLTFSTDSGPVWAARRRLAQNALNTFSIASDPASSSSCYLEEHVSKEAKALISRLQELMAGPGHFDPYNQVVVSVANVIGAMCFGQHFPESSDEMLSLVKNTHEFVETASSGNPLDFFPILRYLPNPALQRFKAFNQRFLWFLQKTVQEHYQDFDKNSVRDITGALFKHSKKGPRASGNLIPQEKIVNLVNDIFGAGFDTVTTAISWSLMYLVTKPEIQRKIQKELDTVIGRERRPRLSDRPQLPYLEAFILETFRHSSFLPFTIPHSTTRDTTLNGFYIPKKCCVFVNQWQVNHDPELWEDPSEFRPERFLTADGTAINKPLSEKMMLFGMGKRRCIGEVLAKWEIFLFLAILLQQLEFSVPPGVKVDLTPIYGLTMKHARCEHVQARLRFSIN

in vitro [6] = details: human, Caco-2
Description: Apparent permeability across human Caco-2 cells at 50 uM

[7] = target: Estrogen receptor beta (Homo sapiens) (UniProt Q92731); assay: Displacement of [2,4,6,7-3H]17beta-estradiol from human recombinant ERbeta receptor relative to 17-beta-estradiol
[8] = Half life in Wistar rat at 10 mg/kg, po by cassette dosing; type: ADME, organism-based; set-up: dose 10 mg/kg, route oral; details: in vivo, read-out: beta t1/2 (converted)
[9] = Cmax in Wistar rat at 10 mg/kg, po by cassette dosing; type: ADME, organism-based; set-up: dose 10 mg/kg, route oral; details: in vivo
Rattus norvegicus [10] = assay: AUC (0 to Tlast) life in Wistar rat at 10 mg/kg, po by cassette dosing; type: ADME, organism-based, Plasma; set-up: dose 10 mg/kg, route oral; details: in vivo
Rattus norvegicus [11] = assay: Tlast in Wistar rat at 10 mg/kg, po by cassette dosing; type: ADME, organism-based; set-up: dose 10 mg/kg, route oral; details: in vivo
Rattus norvegicus [12] = assay: Clast in Wistar rat at 10 mg/kg, po by cassette dosing; type: ADME, organism-based; set-up: dose 10 mg/kg, route oral; details: in vivo
[13] = Tmax in Wistar rat at 10 mg/kg, po by cassette dosing; type: ADME, organism-based; set-up: dose 10 mg/kg, route oral; details: in vivo

Sequence of Estrogen receptor beta (Homo sapiens) (Q92731 whole entry): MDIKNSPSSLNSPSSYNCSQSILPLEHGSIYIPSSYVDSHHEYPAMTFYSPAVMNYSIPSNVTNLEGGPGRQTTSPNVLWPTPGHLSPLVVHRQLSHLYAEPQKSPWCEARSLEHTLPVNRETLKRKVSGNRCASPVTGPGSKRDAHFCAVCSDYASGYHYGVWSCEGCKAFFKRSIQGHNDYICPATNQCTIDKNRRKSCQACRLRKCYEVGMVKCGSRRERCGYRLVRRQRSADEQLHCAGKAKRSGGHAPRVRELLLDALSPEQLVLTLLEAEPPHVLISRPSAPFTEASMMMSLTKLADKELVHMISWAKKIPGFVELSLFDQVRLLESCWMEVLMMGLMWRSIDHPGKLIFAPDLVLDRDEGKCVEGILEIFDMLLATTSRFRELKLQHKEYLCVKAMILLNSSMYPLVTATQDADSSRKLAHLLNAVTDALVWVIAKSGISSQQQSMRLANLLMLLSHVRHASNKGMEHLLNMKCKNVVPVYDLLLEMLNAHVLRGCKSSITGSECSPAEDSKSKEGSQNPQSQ
Sequence of Cytochrome P450 2C19 (P33261 whole entry): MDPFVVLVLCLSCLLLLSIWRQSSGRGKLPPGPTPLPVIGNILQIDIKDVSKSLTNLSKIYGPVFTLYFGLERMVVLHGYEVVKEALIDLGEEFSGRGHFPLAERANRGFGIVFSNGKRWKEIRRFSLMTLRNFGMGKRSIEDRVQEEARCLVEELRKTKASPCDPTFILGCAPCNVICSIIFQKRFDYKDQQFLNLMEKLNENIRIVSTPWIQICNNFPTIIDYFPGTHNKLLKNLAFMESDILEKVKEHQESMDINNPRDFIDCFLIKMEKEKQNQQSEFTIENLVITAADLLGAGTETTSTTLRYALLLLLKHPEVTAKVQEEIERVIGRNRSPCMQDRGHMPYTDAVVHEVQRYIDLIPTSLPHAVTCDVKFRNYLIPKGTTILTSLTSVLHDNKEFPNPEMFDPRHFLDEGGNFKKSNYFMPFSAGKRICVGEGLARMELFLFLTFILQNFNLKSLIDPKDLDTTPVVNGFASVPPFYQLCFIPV
Sequence of Cytochrome P450 3A4 (P08684 whole entry): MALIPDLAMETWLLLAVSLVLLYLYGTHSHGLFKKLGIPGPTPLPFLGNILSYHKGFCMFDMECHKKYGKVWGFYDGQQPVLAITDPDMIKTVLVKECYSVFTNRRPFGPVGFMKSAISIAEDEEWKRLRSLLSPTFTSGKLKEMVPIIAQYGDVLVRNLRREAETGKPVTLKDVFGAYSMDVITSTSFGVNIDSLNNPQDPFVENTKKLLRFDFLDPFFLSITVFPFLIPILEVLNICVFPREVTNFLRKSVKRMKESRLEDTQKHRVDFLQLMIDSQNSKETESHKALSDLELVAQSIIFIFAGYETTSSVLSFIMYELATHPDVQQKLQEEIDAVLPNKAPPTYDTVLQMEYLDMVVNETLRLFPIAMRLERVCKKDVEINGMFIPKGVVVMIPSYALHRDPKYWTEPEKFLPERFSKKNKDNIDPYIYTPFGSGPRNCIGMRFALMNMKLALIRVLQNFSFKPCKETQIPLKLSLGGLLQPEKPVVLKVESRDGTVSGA
Sequence of Cytochrome P450 2D6 (P10635 whole entry): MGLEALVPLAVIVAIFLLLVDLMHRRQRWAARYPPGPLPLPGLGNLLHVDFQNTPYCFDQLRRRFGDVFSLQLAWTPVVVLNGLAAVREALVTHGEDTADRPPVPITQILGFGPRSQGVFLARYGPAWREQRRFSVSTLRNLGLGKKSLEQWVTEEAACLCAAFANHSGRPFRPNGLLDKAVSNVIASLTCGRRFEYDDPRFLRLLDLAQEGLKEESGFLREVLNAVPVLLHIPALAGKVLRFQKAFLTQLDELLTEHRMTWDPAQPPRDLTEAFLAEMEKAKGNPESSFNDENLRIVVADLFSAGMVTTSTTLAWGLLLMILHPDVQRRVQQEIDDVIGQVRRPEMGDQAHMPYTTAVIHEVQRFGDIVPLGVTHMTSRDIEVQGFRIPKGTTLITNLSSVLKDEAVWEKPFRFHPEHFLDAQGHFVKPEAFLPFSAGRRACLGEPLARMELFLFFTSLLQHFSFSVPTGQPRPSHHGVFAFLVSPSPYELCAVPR

Activity [1]: inactive
Structure (SMILES): Oc1ccc(-c2cnc(-c3cccc(O)c3)[nH]2)cc1

Activity [1]: inactive
Structure (SMILES): Cn1nc(-c2cccc(O)c2)nc1-c1ccc(O)cc1

IC50 [2]: > 5000 nM
Structure (SMILES): Oc1ccc(-c2nc(-c3cccc(O)c3)cs2)cc1

IC50 [2]: 455 nM
Structure (SMILES): Oc1cccc(-c2csc(-c3cccc(O)c3)n2)c1

Activity [1]: inactive
Structure (SMILES): c1ccc(-c2ccc(-c3ccccc3)s2)cc1

IC50 [2]: > 1000 nM
Structure (SMILES): Oc1ccc(-c2ccsc2-c2cccc(O)c2)cc1

half-life at 1 µM (in vitro [3]): 18.6 min
IC50 (Cytochrome P450 2C19): > 4 µM
IC50 (Cytochrome P450 3A4): 1900 nM
microsomal CLint at 1 µM (in vitro [4]): 248 µL/min/mg
IC50 (Cytochrome P450 2B6): > 4 µM
RBA [5]: 0.01%
IC50 (Cytochrome P450 2D6): > 4 µM
IC50 (Cytochrome P450 1A2): > 4 µM
Papp at 50 µM (in vitro [6]): 14.4 ×10⁻⁶ cm/s
IC50 [2]: 151 nM
RBA [7]: 0.1%
Structure (SMILES): Oc1ccc(-c2cc(-c3cccc(O)c3)cs2)cc1
Activity (T47D): inactive

IC50 [2]: > 1000 nM
Structure (SMILES): Oc1ccc(-c2cccc(-c3ccc(O)cc3)c2)cc1

IC50 [2]: > 1000 nM
Structure (SMILES): Oc1ccc(-c2cccc(-c3cccc(O)c3)c2)cc1

IC50 [2]: 471 nM
Structure (SMILES): Oc1ccc(-c2ccc(-c3cccc(O)c3)cc2)cc1
Activity (T47D): inactive

IC50 [2]: 169 nM
Structure (SMILES): Oc1cccc(-c2nsc(-c3cccc(O)c3)n2)c1

Activity [1]: inactive
Structure (SMILES): Oc1ccc(-c2ccsc2-c2ccc(O)cc2)cc1

IC50 [2]: 173 nM
Structure (SMILES): Oc1cccc(-c2ccc(-c3cccc(O)c3)s2)c1

Activity [1]: inactive
Structure (SMILES): Cn1nc(-c2ccc(O)cc2)nc1-c1cccc(O)c1

half-life [8]: 72 min
Cmax [9]: 106 ng/mL
AUC (Rattus norvegicus [10]): 1200 ng·h/mL
tz (Rattus norvegicus [11]): 10 h
Cz (Rattus norvegicus [12]): 54 ng/mL
Tmax [13]: 3 h
Structure (SMILES): Oc1cccc(-c2nnc(-c3cccc(O)c3)nn2)c1

Activity [1]: inactive
Structure (SMILES): Oc1ccc(-c2csc(-c3ccc(O)cc3)c2)cc1

IC50 [2]: > 1000 nM
Structure (SMILES): Oc1ccc(-c2csc(-c3cccc(O)c3)n2)cc1

RBA [5]: 0.01%
IC50 [2]: 77 nM
RBA [7]: 0.1%
Structure (SMILES): Oc1ccc(-c2csc(-c3cccc(O)c3)c2)cc1

IC50 [2]: > 5000 nM
Structure (SMILES): Oc1cccc(-c2cc(-c3ccccc3)cs2)c1
